Results reported in the NIST ThermoML archive (doi:10.1016/j.jct.2016.07.005).

Assay: refractive index (Na D-line) (dimensionless); xn = mol fraction of the nth substance listed
Conditions: 100 kPa, Liquid, Standard Abbe refractometry

CN1CCC[C@H]1c1cccnc1 [(-)-3-(N-methylpyrrolidino)pyridine] + OCCCO
refractive index
Conditions	x1 = 0.1	x1 = 0.1999	x1 = 0.3	x1 = 0.3994	x1 = 0.5	x1 = 0.6004	x1 = 0.7	x1 = 0.8	x1 = 0.9	x1 = 1
293.15 K	1.45763	1.47282	1.48522	1.49551	1.50314	1.50913	1.51461	1.51947	1.5228	1.52665
298.15 K	1.4561	1.47118	1.4835	1.49364	1.50131	1.50702	1.51264	1.51729	1.52064	1.52439
303.15 K	1.45463	1.46959	1.48179	1.49178	1.49939	1.5052	1.51056	1.51508	1.51845	1.52214
308.15 K	1.45312	1.46793	1.48	1.48991	1.49739	1.50305	1.50843	1.51294	1.51623	1.51988
313.15 K	1.45171	1.46637	1.47831	1.48799	1.49571	1.50113	1.50703	1.51089	1.51476	1.5179
318.15 K	1.45006	1.46458	1.4764	1.48604	1.49341	1.49907	1.50429	1.50872	1.51216	1.51592
323.15 K	1.44849	1.46287	1.4746	1.48415	1.49147	1.49703	1.50221	1.5066	1.50996	1.51373
